Target: T1, Integrin αvβ3 expressing U87MG cells (Homo sapiens, UniProt P05106+P06756)
T1 construct: Integrin αvβ3 expressing U87MG cells; endogenous in cells; host or cells: U87MG cells
Test: Cell-based integrin binding competition assay against green fluorescence labeled compound 13
Conditions: 0-32 μM compound, 2 μM compound 13, 2 hrs, fluorescence reading, FIG. 2
Method: Integrin αvβ3 expressing U87MG cells were incubated with a series of concentration of RGD compounds (0-32 μM) in the presence of 2 μM of green fluorescence labeled compound 13 for 2 hrs. After incubation, cells were washed three times to eliminate unbound RGD compounds. Fluorescence readings (RLU) were then taken (excitation at 491 nm, emission at 518 nm, cutoff 515 nm).

N=C(N)NCCC[C@@H]1NC(=O)[C@H](CCCCN)NC(=O)N(Cc2ccccc2)NC(=O)[C@H](CC(=O)O)NC(=O)CNC1=O [Compound 7, 2-((5S,8S,14S)-5-(4-aminobutyl)-2-benzyl-8-(3-guanidinopropyl)-3,6,9,12,15-pentaoxo-1,2,4,7,10,13-hexaazacyclopentadecan-14-yl)acetic acid]
potency in binding competition: very similar in potency

Source: patent US8486372B2, “Cyclic azapeptides as integrin markers and methods of using” (Siemens Medical Solutions USA, Inc., priority 2007, dated 2013)
